From US8575163B2, “Pyrrolopyridinylpyrimidin-2-ylamine derivatives” (Merck Patent GmbH, priority 2009, dated 2013)
pIC50: −log10 of the molar value.

What follows are molecules tested against T1, PDK1 (Homo sapiens, UniProt O15530) (assay: Test for the inhibition of PDK1 (flashplate, 33P-ATP)). Conditions: His6-PDK1 3.4 nM, 4 μM ATP, 30° C., 60 min.
T1 construct: His6 (N)
T1 sequence (O15530 51-556 limits assumed): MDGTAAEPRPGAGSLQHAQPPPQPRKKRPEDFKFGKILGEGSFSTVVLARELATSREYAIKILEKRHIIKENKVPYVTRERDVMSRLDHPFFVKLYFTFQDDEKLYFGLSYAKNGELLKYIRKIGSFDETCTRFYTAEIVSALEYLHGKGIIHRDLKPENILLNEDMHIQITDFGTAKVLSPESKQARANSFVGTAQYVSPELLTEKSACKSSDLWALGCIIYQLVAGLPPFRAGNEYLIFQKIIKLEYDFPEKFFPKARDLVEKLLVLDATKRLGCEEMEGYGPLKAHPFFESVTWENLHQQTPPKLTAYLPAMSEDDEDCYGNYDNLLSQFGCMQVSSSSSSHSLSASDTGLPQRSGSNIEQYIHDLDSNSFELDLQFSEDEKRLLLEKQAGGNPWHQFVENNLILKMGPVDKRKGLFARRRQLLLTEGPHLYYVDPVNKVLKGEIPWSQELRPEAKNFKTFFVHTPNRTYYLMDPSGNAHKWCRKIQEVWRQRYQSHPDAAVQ
Assay type: biochemical
Procedure: The experimental batches are carried out in a flashplate system with 384 wells/microtitration plate.
In each case, the PDK1 sample His6-PDK1(1-50)(3.4 nM), the PDK1 substrate biotin-bA-bA-[…] (400 nM), 4 μM ATP (with 0.2 μCi of ^33 P-ATP/well) and the test substance in 50 μl of conventional experimental solution per well are incubated at 30° C. for 60 min. The test substances are employed in corresponding concentrations (if desired in a dilution series). The control is carried out without test substance. The reaction is stopped using standard methods and washed. The activity of the kinase is measured via the incorporated radioactivity in top count. In order to determine the non-specific kinase reaction (blank value), the experimental batches are carried out in the presence of 100 nM staurosporin.
The radioactivity (decompositions per minute) of the blank value (no use of test substance in the presence of staurosporin) is subtracted from all other radioactivity values. The controls (kinase activity without test substance) are set equal to 100 percent and all other radioactivity values (after subtracting the blank value) are expressed set in relation thereto (for example in % of the control).
[formula] IC50 values (50% inhibition) are determined with the aid of statistics programmes, such as, for example, RS1.

| Structure (SMILES) | pIC50 |
| --- | --- |
| CC(O)(c1ccccc1)c1cc(-c2c[nH]c3ncc(-c4cnn(Cc5cccs5)c4)cc23)nc(N)n1 (stereo not shown) [A47, 1-{2-amino-6-[5-(1-thiophen-2-ylmethyl-1H-pyrazol-4-yl)-1H-pyrrolo[2,3-b]-pyridin-3-yl]pyrimidin-4-yl}-1-phenylethanol] | 7.00 |
| COCOC(C)(c1cccc(F)c1)c1nc(N)nc(-c2c[nH]c3ncc(Br)cc23)c1F (stereo not shown) [A12, 4-(5-bromo-1H-pyrrolo[2,3-b]pyridin-3-yl)-5-fluoro-6-[1-(3-fluorophenyl)-1-methoxymethoxyethyl]pyrimidin-2-ylamine] | < 4.70 |
| COCOC(C)(c1cccc(C)c1)c1cc(-c2c[nH]c3ncc(-c4cnn(C)c4)cc23)nc(N)n1 (stereo not shown) [A23, 4-(1-methoxymethoxy-1-m-tolylethyl)-6-[5-(1-methyl-1H-pyrazol-4-yl)-1H-pyrrolo[2,3-b]pyridin-3-yl]pyrimidin-2-ylamine] | 6.89 |
| CC(C)n1cc(-c2cnc3[nH]cc(-c4cc(C(C)(O)C(C)C)nc(N)n4)c3c2)cn1 (stereo not shown) [A88, 2-{2-amino-6-[5-(1-isopropyl-1H-pyrazol-4-yl)-1H-pyrrolo[2,3-b]pyridin-3-yl]-pyrimidin-4-yl}-3-methylbutan-2-ol] | 7.55 |
| CCOC(C)(c1ccccc1)c1cc(-c2c[nH]c3ncc(-c4cnn(C)c4)cc23)nc(N)n1 (stereo not shown) [A76, 4-(1-ethoxy-1-phenylethyl)-6-[5-(1-methyl-1H-pyrazol-4-yl)-1H-pyrrolo-[2,3-b]pyridin-3-yl]pyrimidin-2-ylamine] | 7.10 |
| CC[C@@](O)(c1ccncc1)c1cc(-c2c[nH]c3ncc(-c4cnn(CC(=O)N5CCCCC5)c4)cc23)nc(N)n1 [A46, 2-(4-{3-[2-amino-6-((R)-1-hydroxy-1-pyridin-4-ylpropyl)pyrimidin-4-yl]-1H-pyrrolo[2,3-b]pyridin-5-yl}pyrazol-1-yl)-1-piperidin-1-ylethanone] | 7.26 |
| COCOC(C)(c1ccccc1)c1cc(-c2c[nH]c3ncc(-c4cnn(CCC(N)=O)c4)cc23)nc(N)n1 (stereo not shown) [A74, 3-(4-{3-[2-amino-6-(1-methoxymethoxy-1-phenylethyl)pyrimidin-4-yl]-1H-pyrrolo[2,3-b]pyridin-5-yl}pyrazol-1-yl)propionamide] | 7.17 |
| CC(O)(c1ccncc1)c1cc(-c2c[nH]c3ncc(-c4cnn(CC(=O)N5CCCCC5)c4)cc23)nc(N)n1 (stereo not shown) [A61, 2-(4-{3-[2-amino-6-(1-hydroxy-1-pyridin-4-ylethyl)pyrimidin-4-yl]-1H-pyrrolo-[2,3-b]pyridin-5-yl}pyrazol-1-yl)-1-piperidin-1-ylethanone] | 8.68 |
| CCCC(O)(c1ccccc1)c1cc(-c2c[nH]c3ncc(Br)cc23)nc(N)n1 (stereo not shown) [A16, 1-[2-amino-6-(5-bromo-1H-pyrrolo[2,3-b]pyridin-3-yl)pyrimidin-4-yl]-1-phenylbutan-1-ol] | 6.55 |
| CCC(OCOC)(c1cccc(F)c1)c1cc(-c2c[nH]c3ncc(Br)cc23)nc(N)n1 (stereo not shown) [A54, 4-(5-bromo-1H-pyrrolo[2,3-b]pyridin-3-yl)-6-[1-(3-fluorophenyl)-1-methoxymethoxypropyl]pyrimidin-2-ylamine] | 5.82 |
| COCO[C@@](C)(c1cccc(F)c1)c1cc(-c2c[nH]c3ncc(Br)cc23)nc(N)n1 [A72, 4-(5-bromo-1H-pyrrolo[2,3-b]pyridin-3-yl)-6-[(S)-1-(3-fluorophenyl)-1-methoxymethoxyethyl]pyrimidin-2-ylamine] | 6.02 |
| CCC(O)(c1cccc(F)c1)c1cc(-c2c[nH]c3ncc(-c4ccc(CO)cc4)cc23)nc(N)n1 (single isomer, unassigned) [A33, 1-{2-amino-6-[5-(4-hydroxymethylphenyl)-1H-pyrrolo[2,3-b]pyridin-3-yl]-pyrimidin-4-yl}-1-(3-fluorophenyl)propan-1-ol] | 6.77 |
| CC(O)(c1ccccc1)c1cc(-c2c[nH]c3ncc(-c4cnn(CCO)c4)cc23)nc(N)n1 (stereo not shown) [A99, 1-(2-amino-6-{5-[1-(2-hydroxyethyl)-1H-pyrazol-4-yl]-1H-pyrrolo[2,3-b]-pyridin-3-yl}pyrimidin-4-yl)-1-phenylethanol] | 7.39 |
| Cn1cc(-c2cnc3[nH]cc(-c4cc(C(C)(O)c5ccnnc5)nc(N)n4)c3c2)cn1 (stereo not shown) [A109, 1-{2-amino-6-[5-(1-methyl-1H-pyrazol-4-yl)-1H-pyrrolo[2,3-b]pyridin-3-yl]-pyrimidin-4-yl}-1-pyridazin-4-ylethanol] | 8.11 |
| CC(C)(C)OC(=O)NCCNC(=O)CCn1cc(-c2cnc3[nH]cc(-c4cc(C(C)(O)c5ccccc5)nc(N)n4)c3c2)cn1 (stereo not shown) [A63, tert-butyl {2-[3-(4-{3-[2-amino-6-(1-hydroxy-1-phenylethyl)pyrimidin-4-yl]-1H-pyrrolo[2,3-b]pyridin-5-yl}pyrazol-1-yl)propionylamino]ethyl}carbamate] | 6.96 |
| CCC(OCOC)(c1cc(-c2c[nH]c3ncc(-c4cnn(C)c4)cc23)nc(N)n1)c1ccncc1F (stereo not shown) [A37, 4-[1-(3-fluoropyridin-4-yl)-1-methoxymethoxypropyl]-6-[5-(1-methyl-1H-pyrazol-4-yl)-1H-pyrrolo[2,3-b]pyridin-3-yl]pyrimidin-2-ylamine] | 7.60 |
| Cn1cc(-c2cnc3[nH]cc(-c4cc(C(C)(O)c5cccnc5)nc(N)n4)c3c2)cn1 (single isomer, unassigned) [A58, 1-{2-amino-6-[5-(1-methyl-1H-pyrazol-4-yl)-1H-pyrrolo[2,3-b]pyridin-3-yl]-pyrimidin-4-yl}-1-pyridin-3-ylethanol] | 7.07 |
| CC(O)(c1cccc(F)c1)c1cc(-c2c[nH]c3ncc(-c4cnn(CC(=O)N5CCCCC5)c4)cc23)nc(N)n1 (stereo not shown) [A59, 2-[4-(3-{2-amino-6-[1-(3-fluorophenyl)-1-hydroxyethyl]pyrimidin-4-yl}-1H-pyrrolo[2,3-b]pyridin-5-yl)pyrazol-1-yl]-1-piperidin-1-ylethanone] | 7.16 |
| COCOC(C)(c1ccccc1)c1cc(-c2c[nH]c3ncc(-c4cnn(C)c4)cc23)nc(N)n1 (stereo not shown) [A25, 4-(1-methoxymethoxy-1-phenylethyl)-6-[5-(1-methyl-1H-pyrazol-4-yl)-1H-pyrrolo[2,3-b]pyridin-3-yl]pyrimidin-2-ylamine] | 7.24 |
| COC(C)(c1ccccc1)c1cc(-c2c[nH]c3ncc(-c4cnn(CCO)c4)cc23)nc(N)n1 (stereo not shown) [A27, 2-(4-{3-[2-amino-6-(1-methoxy-1-phenylethyl)pyrimidin-4-yl]-1H-pyrrolo-[2,3-b]pyridin-5-yl}pyrazol-1-yl)ethanol] | 7.49 |
| CC(O)(c1cccc(F)c1)c1cc(-c2c[nH]c3ncc(-c4ccc(CC#N)cc4)cc23)nc(N)n1 (stereo not shown) [A55, [4-(3-{2-amino-6-[1-(3-fluorophenyl)-1-hydroxyethyl]pyrimidin-4-yl}-1H-pyrrolo[2,3-b]pyridin-5-yl)phenyl]acetonitrile] | 7.12 |
| CO[C@@](C)(c1ccccc1)c1cc(-c2c[nH]c3ncc(-c4cnn(CCO)c4)cc23)nc(N)n1 (single isomer, unassigned) [A93] | 7.32 |
| CC(O)(c1ccccc1)c1cc(-c2c[nH]c3ncc(-c4cnn(S(C)(=O)=O)c4)cc23)nc(N)n1 (stereo not shown) [A48, 1-{2-amino-6-[5-(1-methanesulfonyl-1H-pyrazol-4-yl)-1H-pyrrolo[2,3-b]pyridin-3-yl]pyrimidin-4-yl}-1-phenylethanol] | 6.85 |
| CC(O)(c1ccccc1)c1cc(-c2c[nH]c3ncc(-c4cnn(CCC(=O)N5CCC(O)C5)c4)cc23)nc(N)n1 (stereo not shown) [A65, 3-(4-{3-[2-amino-6-(1-hydroxy-1-phenylethyl)pyrimidin-4-yl]-1H-pyrrolo-[2,3-b]pyridin-5-yl}pyrazol-1-yl)-1-(3-hydroxypyrrolidin-1-yl)propan-1-one] | 7.60 |
| CCC(O)(c1ccccc1)c1cc(-c2c[nH]c3ncc(-c4cnn(CCO)c4)cc23)nc(N)n1 (stereo not shown) [A98, 1-(2-amino-6-{5-[1-(2-hydroxyethyl)-1H-pyrazol-4-yl]-1H-pyrrolo[2,3-b]-pyridin-3-yl}pyrimidin-4-yl)-1-phenylpropan-1-ol] | 7.92 |
| CCOC(=O)CCn1cc(-c2cnc3[nH]cc(-c4cc(C(C)(OCOC)c5ccccc5)nc(N)n4)c3c2)cn1 (stereo not shown) [A78, ethyl 3-(4-{3-[2-amino-6-(1-methoxymethoxy-1-phenylethyl)pyrimidin-4-yl]-1H-pyrrolo[2,3-b]pyridin-5-yl}pyrazol-1-yl)propionate] | 7.21 |
| CC[C@@](OCOC)(c1cccc(F)c1)c1cc(-c2c[nH]c3ncc(Br)cc23)nc(N)n1 [A51, 4-(5-bromo-1H-pyrrolo[2,3-b]pyridin-3-yl)-6-[(R)-1-(3-fluorophenyl)-1-methoxymethoxypropyl]pyrimidin-2-ylamine] | 6.19 |
| Cn1cc(-c2cnc3[nH]cc(-c4cc(C(O)(c5ccccc5)C5CCCC5)nc(N)n4)c3c2)cn1 (stereo not shown) [A85, {2-amino-6-[5-(1-methyl-1H-pyrazol-4-yl)-1H-pyrrolo[2,3-b]pyridin-3-yl]-pyrimidin-4-yl}cyclopentylphenylmethanol] | 7.28 |
